According to patent US20260226414A1, “COMPOSITION FOR INDUCING DIFFERENTIATION OF MESENCHYMAL STEM CELLS INTO ADIPOCYTES” (ENCELL CO., LTD, priority 2023, published 2026):

Columns and labels:
Assay type in all cases: cell-based
[1] = test system: human adipose-derived mesenchymal stem cells (AD-MSCs); test: qRT-PCR of adipogenesis markers at the mRNA level (2^-ΔΔCt); conditions: 160 μM, day 14, qRT-PCR
Experimental: After inducing adipogenesis for 14 days by treating human adipose-derived mesenchymal stem cells (AD-MSCs) with 160 μM nervonic acid, the gene expression of adipogenesis markers at the mRNA level was compared using qRT-PCR.
Specifically, RNA for qRT-PCR was extracted from mesenchymal stem cells with adipogenesis completed using TRIZOL from Invitrogen according to the method provided by the vendor, and cDNA was synthesized using SuperScript™ IV Reverse Transcriptase from Invitrogen. qRT-PCR was performed using the primers listed in Table 1 below, and the quantified results through 2^−ΔΔCt analysis are shown in FIG. 12.

[2] = test system: human adipose-derived mesenchymal stem cells (AD-MSCs); test: Western blotting of adipogenesis-associated signaling molecules (phosphorylation ratios); conditions: 160 μM, day 14, Western blotting
Experimental: After inducing adipogenesis for 14 days by treating human adipose-derived mesenchymal stem cells (AD-MSCs) with 160 μM nervonic acid, the expression of adipogenesis-associated signaling molecules at the protein level was compared using Western blotting.
More specifically, protein for Western blotting was extracted using the same method as the extraction method described above, and Western blotting was performed using the primary antibodies listed in Table 3 below.

[3] = test system: human adipose-derived mesenchymal stem cells (AD-MSCs); test: Western blotting of adipogenesis markers at the protein level; conditions: 160 μM, day 14, Western blotting
Experimental: After inducing adipogenesis for 14 days by treating human adipose-derived mesenchymal stem cells (AD-MSCs) with 160 μM nervonic acid, the expression of adipogenesis markers at the protein level was compared using Western blotting.
Specifically, protein for Western blotting was extracted from mesenchymal stem cells with adipogenesis completed using RIPA lysis buffer, and Western blotting was performed using the primary antibodies listed in Table 2 below.

[4] = test system: human umbilical cord-derived mesenchymal stem cells (WJ-MSCs); test: Adipogenesis induction, Oil Red O staining quantification
Experimental: (§1) Specifically, for Oil Red O (Sigma-Aldrich, St. Louis, MO, USA) staining, after completion of differentiation, the culture medium was removed from each well of the plate, followed by washing twice with 1×PBS and then fixing with 4% paraformaldehyde (PFA) for 10 minutes. Washing three times with deionized water and then washing once with 60% isopropyl alcohol were performed. The Oil Red O stock solution was diluted with deionized water in a ratio of 3:2 to prepare an Oil Red O working solution, 1 ml of which was then added to each well of the plate followed by reaction at room temperature for 30 minutes. After washing once with 60% isopropyl alcohol and washing three times with deionized water, the red-stained oil droplets were observed and photographed under a microscope, and the results are shown in FIG. 4a.
(§2) Specifically, the stained oil droplets were dissolved in 100% isopropyl alcohol, and 100 μl of the result was transferred to each well of the 96-well plate, followed by measurement using a microplate reader (absorbance at 540 nm). […]
(§3) After inducing adipogenesis for 7, 14, and 21 days by treating human umbilical cord-derived mesenchymal stem cells (WJ-MSCs) with nervonic acid, the oil droplets stained by Oil Red O staining are shown in FIG. 10a, and the results of quantification of the stained oil droplets are shown in FIG. 10b.

[5] = test system: human adipose-derived mesenchymal stem cells (AD-MSCs); test: Adipogenesis induction, Oil Red O staining and quantification (absorbance at 540 nm); conditions: for Oil Red O stained oil droplets, fold increase compared to DMSO-treated control group: 160 μM, three lots of AD-MSCs
Experimental: To determine the appropriate concentration of nervonic acid having excellent efficacy in promoting adipogenesis, adipogenesis was induced for 7 days by treating human adipose-derived mesenchymal stem cells with nervonic acid at different concentrations (0, 40, 80, 120, 160, 200, 240, 280 μM), followed by Oil Red O staining to confirm the stained oil droplets.
as §1
After inducing adipogenesis for 7 days by treating human adipose-derived mesenchymal stem cells with nervonic acid at different concentrations (0, 40, 80, 120, 160, 200, 240, 280 μM), the results of quantification of the oil droplets stained by Oil Red O staining are shown in FIG. 4b.
Specifically, the stained oil droplets were dissolved in 100% isopropyl alcohol, and 100 μl of the result was transferred to each well of the 96-well plate, followed by measurement using a microplate reader (absorbance at 540 nm). […] Nervonic acid (Sigma-Aldrich, St. Louis, MO, USA) was dissolved in DMSO and then stored at −80° C. before use.
Adipogenesis was induced for 7 days by treating a total of three lots of human adipose-derived mesenchymal stem cells (AD-MSCs) with 160 μM nervonic acid, followed by observation of the oil droplets stained by Oil Red O staining, and the results are shown in FIG. 5a.

[6] = test system: human placenta-derived mesenchymal stem cells (PL-MSCs); test: Adipogenesis induction, Oil Red O staining quantification
Experimental: as §1, §2
After inducing adipogenesis for 7, 14, and 21 days by treating human placenta-derived mesenchymal stem cells (PL-MSCs) with nervonic acid, the oil droplets stained by Oil Red O staining are shown in FIG. 9a, and the results of quantification of the stained oil droplets are shown in FIG. 9b.

[7] = test system: human adipose-derived mesenchymal stem cells; test: Observation of oil droplet formation after 72 hours of culture with nervonic acid; conditions: 72 hours treatment, different concentrations
Experimental: Human adipose-derived mesenchymal stem cells were treated with nervonic acid at different concentrations for 72 hours and cultured, after which the concentration at which oil droplets were generated was observed.

[8] = test system: human adipose-derived mesenchymal stem cells; test: Cell viability / cytotoxicity by Cell Counting Kit-8 (CCK-8); conditions: 0-280 μM nervonic acid, vs DMSO control
Experimental: The isolated human adipose-derived mesenchymal stem cells were treated with nervonic acid at different concentrations and cultured for 72 hours, after which cytotoxicity was measured. Specifically, Cell Counting Kit-8 (CCK-8, Dojindo, Tokyo, Japan) was used, and 1×10^3/well of cells were plated on a 96-well plate, stabilized for 24 hours, and then treated with nervonic acid at different concentrations (0, 40, 80, 120, 160, 200, 240, 280 μM), including the control group (DMSO), and cell viability was measured.
Before confirming the efficacy of nervonic acid to promote adipogenesis, cell viability was reconfirmed by treating cells with nervonic acid at various concentrations for 7 days. The specific method is the same as the method described above, and cell viability was measured by treatment with nervonic acid at different concentrations (0, 40, 80, 120, 160, 200, 240, 280 μM), including the control group (DMSO).

[9] = test system: human umbilical cord blood-derived mesenchymal stem cells (UCB-MSCs); test: Adipogenesis induction, Oil Red O staining quantification
Experimental: as §1, §2
as §3, with “cord blood-derived” for “cord-derived”, “(UCB-MSCs)” for “(WJ-MSCs)”, “8a,” for “10a,”, “8b.” for “10b.”

[10] = test system: human bone marrow-derived mesenchymal stem cells (BM-MSCs); test: as above; conditions: 160 μM, days 7 and 14
Experimental: as §1, §2
After inducing adipogenesis for 7, 14, and 21 days by treating human bone marrow-derived mesenchymal stem cells (BM-MSC) with nervonic acid, the oil droplets stained by Oil Red O staining are shown in FIG. 11a, and the results of quantification of the stained oil droplets are shown in FIG. 11b.

[11] = 160 μM, 7, 14 and 21 days (all cases)

In the case of `CCCCCCCC/C=C\CCCCCCCCCCCCCC(=O)O` [nervonic acid], the “Adiponectin mRNA expression, fold increase compared to control group” value [1] is reported as 1.37±0.19 fold, the “LPL mRNA expression, fold increase compared to control group” value [1] is reported as 1.44±0.12 fold and the “PPARγ mRNA expression, fold increase compared to control group” value [1] is reported as 1.74±0.35 fold. The “c/EBPa mRNA expression, fold increase compared to control group” value [1] was 1.66±0.22 fold, the “AKT phosphorylation ratio (activation indicator), fold increase compared to control group” value [2] was 1.36±0.16 fold and the “B-catenin phosphorylation ratio (inactivation indicator), fold increase compared to control group” value [2] was 1.39±0.06 fold. The “mTOR phosphorylation ratio (activation indicator), fold increase compared to control group” value [2] was 1.34±0.14 fold, the “Adiponectin protein expression, fold increase compared to control group” value [3] was 2.35±0.55 fold and the “C/EBPA protein expression, fold increase compared to control group” value [3] was 1.37±0.08 fold. The “LPL protein expression, fold increase compared to control group” value [3] was 1.53±0.15 fold, the “PPARγ protein expression, fold increase compared to control group” value [3] was 2.34±0.69 fold and the “Oil Red O stained oil droplets, fold increase compared to DMSO control group” value [4, 11] was no less than 2 fold. The “Oil Red O stained oil droplets, fold increase compared to DMSO control group” value ([4]; 160 μM, day 21 (greatest)) was 5.61±0.23 fold, the “Oil Red O stained oil droplets, fold increase compared to DMSO-treated control group” value ([5]; 7 days) was 2.13±0.27 fold and the “Oil Red O stained oil droplets, fold increase compared to DMSO-treated control group” value ([5]; 14 days) was 1.70±0.08 fold. The “Oil Red O stained oil droplets, fold increase compared to DMSO-treated control group” value ([5]; 21 days) was 1.27±0.14 fold, the “concentration at which adipogenesis was most effectively induced (Oil Red O quantification)” value ([5]; 7 days adipogenesis, 0-280 μM tested) was 160 µM and the “Oil Red O stained oil droplets, fold increase compared to DMSO control group” value [6, 11] was no less than 2 fold. For the same compound, the “Oil Red O stained oil droplets, fold increase compared to DMSO control group” value ([6]; 160 μM, day 21 (greatest)) was 9.22±0.15 fold, the “concentration at which oil droplets were observed” value [7] was no less than 160 µM and the “cell viability (cytotoxicity)” value ([8]; 72 hours (3 days)) was “no significant difference in cell viability”. The “cell viability (cytotoxicity)” value ([8]; 7 days) was “no significant difference in cell viability”, the “Oil Red O stained oil droplets, fold increase compared to DMSO control group” value [9, 11] was no less than 2 fold and the “Oil Red O stained oil droplets, fold increase compared to DMSO control group” value ([9]; 160 μM, day 21 (greatest)) was 3.87±0.06 fold. For the same compound, the “adipogenesis (Oil Red O) compared to DMSO control group” value [10] was “slightly increased”.
